From patent publication US20240424019A1, “SHP1 MODIFIED DENDRITIC CELLS AND EXTRACELLULAR VESICLES DERIVED THEREFROM AND ASSOCIATED METHODS” (BOARD OF REGENTS, THE UNIVERSITY OF TEXAS SYSTEM, priority 2021, published 2024) come the findings set out here.

One assay concerns the target purified SHP1 (Homo sapiens, UniProt P29350). Briefly: Microscale thermophoresis (MST) binding assay. As to conditions: mean of triplicates; read-out: apparent dissociation constant Kd. The procedure: FIG. 3A: Volcano plot of reverse phase protein array (RPPA) data of mouse BMDCs treated with VitE (50 μg/ml) compared to those treated with vehicle control with tumor conditioned media (TCM) for 48 hours (n=3 independent samples). […] The grey dashed line indicates P-value of 0.05. FIG. 3B: t-SNEs by CyTOF and quantification comparing the intensity of pY564-SHP1 in TADCs from the vehicle-or VitE-treated EMT6 tumors at day 15 post-implantation. FIG. 3C: Top, SHP1 knockdown in BMDCs was effective. Bottom, CFSE-dilution analysis of OT-1 T cells co-cultured with OVA protein-pulsed BMDCs (ratio 10:1) with knockdown of SHP1 by siPtpn6 versus siCtrl (n=3). Right, quantification of OT-1 T-cell numbers under the indicated condition. FIG. 3D: The binding of VitE to purified SHP1 is analyzed by microscale thermophoresis (MST) binding assay. […] FIG. 3E: Relative tyrosine phosphatase activity of SHP1 immunoprecipitated from LPS (100 ng/ml)-activated DC2.4 cells in the presence of indicated doses of VitE (mean of triplicates). FIG. 3F: SHP1 tyrosine phosphatase activity in LPS (100 ng/ml)-activated BMDCs (n=6) treated with vehicle-or VitE (50 μg/ml). Error bars, s.e.m. ns, no significant. *P<0.05, **P<0.01. ***P<0.001, ****P<0.0001. […]

Assay [1] concerns the target SHP1 immunoprecipitated from LPS-activated DC2.4 cells (UniProt P29351). The experiment in a line: SHP1 phosphatase assay (EnzChek tyrosine phosphatase kit), dose-response. As to conditions: SHP1 from LPS (100 ng/ml)-activated DC2.4 cells; read-out: inhibitory tyrosine phosphatase activity IC50. The format is biochemical, mouse. An excerpt:
FIG. 3A: […] FIG. 3B: t-SNEs by CyTOF and quantification comparing the intensity of […]-SHP1 in TADCs from the vehicle-or VitE-treated EMT6 tumors at day 15 post-implantation. FIG. 3C: Top, SHP1 knockdown in BMDCs was effective. Bottom, CFSE-dilution analysis of OT-1 T cells co-cultured with OVA protein-pulsed BMDCs (ratio 10:1) with knockdown of SHP1 by […]6 versus siCtrl (n=3). Right, quantification of OT-1 T-cell numbers under the indicated condition. FIG. 3D: The binding of VitE to purified SHP1 is analyzed by microscale thermophoresis (MST) binding assay. […] FIG. 3E: Relative tyrosine phosphatase activity of SHP1 immunoprecipitated from LPS (100 ng/ml)-activated DC2.4 cells in the presence of indicated doses of VitE (mean of triplicates). FIG. 3F: SHP1 tyrosine phosphatase activity in LPS (100 ng/ml)-activated BMDCs (n=6) treated with vehicle-or VitE (50 μg/ml). Error bars, s.e.m. ns, no significant. *P<0.05, **P<0.01. ***P<0.001, ****P<0.0001. We assessed the phosphatase activity of SHP1 by using the RediPlate 96 EnzChek Tyrosine Phosphatase Assay Kit (ThermoFisher). […] We placed beads into RediPlate wells and incubated them for 30 min at 25° C. before reading them for fluorescence. […] The inhibitor dose-response curves were analyzed using normalized IC50 regression curve fitting with control-based normalization.

For a further assay, the system named is B16-GMCSF melanoma. Briefly: B16-GMCSF melanoma model. The format is in vivo, mouse.
For a further assay, the system named is B16-FLT3L melanoma. Briefly: B16-FLT3L melanoma model. As to conditions: VitE plus ICT. The class given is in vivo, mouse.
The subject of another assay is H-2Kb-SIINFEKL
The experiment in a line: Antigen cross-presentation: H-2Kb-SIINFEKL on OVA-loaded DCs by flow cytometry. The class given is cell-based, mouse. An excerpt:
FIG. 4A: Flow cytometric analysis and quantification of H-2Kb-SIINFEKL in OVA-loaded sgCtrl or sgPtpn6-DC2.4 cells without or with TCM treatment (n=3). FIG. 4B: FCM analysis and quantification of H-2K^b-SIINFEKL in the vehicle or VitE-treated BMDCs with or without TCM treatment (n=5). Error bars, s.e.m. ns, no significant. *P<0.05, **P<0.01. ***P<0.001. ****P<0.0001.
The most critical function of DCs is the cross-presentation of tumor antigens to T-cells (Guermonprez et al., 2002). We assessed the membrane MHC-I complexes that were loaded with intracellularly processed OVA-derived peptide (H-2Kb-SIINFEKL) on OVA-loaded DCs with VitE-treatment. […] Therefore, VitE administration enhances the activation and antigen cross-presentation function of DCs to provoke antigen-specific antitumor T-cell immunity. We quantified H-2Kb-SIINFEKL in the vehicle-or VitE-treated sgCtrl-DC2.4 or sgPtpn6-DC2.4 (n=3). […] Thus. SHP1 inhibition in DCs by VitE treatment or Ptpn6 knockout enhances antigen cross-presentation that boosts CD8+ T-cell antitumor immunity.

Chain of purified SHP1 (P29350 whole entry): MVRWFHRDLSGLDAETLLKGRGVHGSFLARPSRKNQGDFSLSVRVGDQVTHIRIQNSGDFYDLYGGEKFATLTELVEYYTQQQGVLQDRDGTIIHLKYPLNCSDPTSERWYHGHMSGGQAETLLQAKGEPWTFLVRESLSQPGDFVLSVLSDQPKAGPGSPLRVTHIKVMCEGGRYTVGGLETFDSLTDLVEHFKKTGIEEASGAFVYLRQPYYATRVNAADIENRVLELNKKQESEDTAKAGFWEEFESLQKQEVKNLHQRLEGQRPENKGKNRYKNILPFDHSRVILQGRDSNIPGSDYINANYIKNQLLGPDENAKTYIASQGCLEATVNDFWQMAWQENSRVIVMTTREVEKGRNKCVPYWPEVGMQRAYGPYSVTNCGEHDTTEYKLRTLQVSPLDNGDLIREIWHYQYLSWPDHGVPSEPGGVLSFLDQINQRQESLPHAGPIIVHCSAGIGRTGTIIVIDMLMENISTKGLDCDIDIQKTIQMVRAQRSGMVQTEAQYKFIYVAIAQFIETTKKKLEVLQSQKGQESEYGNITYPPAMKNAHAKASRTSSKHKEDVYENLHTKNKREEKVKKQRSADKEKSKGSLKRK

With `Cc1c(C)c2c(c(C)c1O)CC[C@@](C)(CCC[C@H](C)CCC[C@H](C)CCCC(C)C)O2` [VitE, D-α-Tocopherol], the Kd at purified SHP1 came out at 39 µM. Further, the IC50 in assay [1] lay within 50 to 200 µM. Besides, in the assay on B16-GMCSF melanoma (GVAX+VitE (50 mg/kg/day oral gavage day 4-20)), the tumor growth entry is “significant tumor inhibition”. Moreover, in the assay with B16-GMCSF melanoma (GVAX+VitE, day 14 post-implantation), the “tumor-infiltrating GZMB+CD8+ T cells” value is given as “increased tumor-infiltrating cytolytic GZMB CD8^+ T cells”. For the same molecule, in the assay on B16-GMCSF melanoma (VitE 50 mg/kg and ICT (anti-PD1) combo-treatment), the therapeutic response entry is recorded as “significantly improved therapeutic response”. In the assay with B16-FLT3L melanoma, the ICT response entry is “effectively enhanced their ICT responses”. The “H-2Kb-SIINFEKL molecules on sgPtpn6-DC2.4 cells” value in the assay with H-2Kb-SIINFEKL (VitE treatment of SHP1-knockout cells) is “did not further increase H-2Kb-SIINFEKL molecules”. In the assay with H-2Kb-SIINFEKL (vs vehicle-treated sgCtrl-DC2.4 cells), the “H-2Kb-SIINFEKL molecules on DC2.4 cells” value is on record as “significantly increased H-2Kb-SIINFEKL molecules on DC2.4 cells”.
